Data published in patent publication US20250381168A1, “VLA4 INHIBITORS AND USES THEREOF” (Washington University, priority 2022, published 2025).
Entries after “also recorded” stand apart in the source; their conditions may differ. Read-outs that look alike come from different tables or passages of the source.

Legend:
[1] = test system: hematopoietic stem/progenitor cells (HSPCs); assay: HSPC mobilization into peripheral blood, colony forming unit (CFU) assay; for HSPC mobilization, result in words: test concentration or dose not given here; settings: mice; for No. CFU (×10^3)/mL ± SD, 1 hr: 1 hr post dose (TABLE 20); for No. CFU (×10^3)/mL ± SD, 8 hr: 8 hr post dose (TABLE 20)
VLA-4 (a4b1) = VLA-4 (a4b1) (Homo sapiens (Human), UniProt P05556+P13612); assay: sVCAM flow cytometry cell-based assay (inhibition of soluble VCAM-1 binding to G2 ALL cells);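 note: compounds at 0.1 to 1000 nM preincubated 30 min with G2 ALL cells, then VCAM/Fc added for 30 min, bound VCAM-1 detected by PE secondary antibody, percent binding cells by flow cytometry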
[2] = inhibition of sVCAM-1 binding to human G2 ALL cells (TABLE 3), read-out: SVCAM-1, IC50
[3] = single dose, peripheral blood, 4 hr post dose (TABLE 20)
[4] = as listed in TABLE 20, read-out: sVCAM IC50

Chain of VLA-4 (a4b1) (P13612 34-1032): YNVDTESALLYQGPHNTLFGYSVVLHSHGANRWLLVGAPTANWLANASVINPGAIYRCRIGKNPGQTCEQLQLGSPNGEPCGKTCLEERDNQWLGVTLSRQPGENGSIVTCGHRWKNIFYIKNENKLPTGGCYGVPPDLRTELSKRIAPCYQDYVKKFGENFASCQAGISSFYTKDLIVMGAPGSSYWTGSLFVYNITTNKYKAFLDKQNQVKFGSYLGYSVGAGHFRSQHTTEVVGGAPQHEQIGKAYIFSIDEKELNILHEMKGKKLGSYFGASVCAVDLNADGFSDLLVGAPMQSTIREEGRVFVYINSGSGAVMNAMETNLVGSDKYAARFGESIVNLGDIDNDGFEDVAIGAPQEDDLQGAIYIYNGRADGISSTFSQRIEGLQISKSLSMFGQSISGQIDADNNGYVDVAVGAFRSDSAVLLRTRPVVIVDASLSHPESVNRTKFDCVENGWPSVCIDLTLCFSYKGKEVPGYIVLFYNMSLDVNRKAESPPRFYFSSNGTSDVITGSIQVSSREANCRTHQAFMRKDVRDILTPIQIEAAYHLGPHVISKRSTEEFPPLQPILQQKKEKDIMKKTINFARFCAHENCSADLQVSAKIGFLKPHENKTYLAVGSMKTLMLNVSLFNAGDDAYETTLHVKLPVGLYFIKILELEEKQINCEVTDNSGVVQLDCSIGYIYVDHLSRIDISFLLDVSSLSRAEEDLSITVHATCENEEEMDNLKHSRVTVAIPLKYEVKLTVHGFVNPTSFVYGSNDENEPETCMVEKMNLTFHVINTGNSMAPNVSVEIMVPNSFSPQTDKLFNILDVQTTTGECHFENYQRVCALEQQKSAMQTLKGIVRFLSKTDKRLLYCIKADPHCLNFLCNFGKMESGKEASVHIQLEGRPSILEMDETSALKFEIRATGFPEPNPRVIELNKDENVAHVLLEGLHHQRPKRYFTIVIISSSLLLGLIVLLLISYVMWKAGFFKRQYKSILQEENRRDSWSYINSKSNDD
Chain of VLA-4 (a4b1) (P05556 21-798): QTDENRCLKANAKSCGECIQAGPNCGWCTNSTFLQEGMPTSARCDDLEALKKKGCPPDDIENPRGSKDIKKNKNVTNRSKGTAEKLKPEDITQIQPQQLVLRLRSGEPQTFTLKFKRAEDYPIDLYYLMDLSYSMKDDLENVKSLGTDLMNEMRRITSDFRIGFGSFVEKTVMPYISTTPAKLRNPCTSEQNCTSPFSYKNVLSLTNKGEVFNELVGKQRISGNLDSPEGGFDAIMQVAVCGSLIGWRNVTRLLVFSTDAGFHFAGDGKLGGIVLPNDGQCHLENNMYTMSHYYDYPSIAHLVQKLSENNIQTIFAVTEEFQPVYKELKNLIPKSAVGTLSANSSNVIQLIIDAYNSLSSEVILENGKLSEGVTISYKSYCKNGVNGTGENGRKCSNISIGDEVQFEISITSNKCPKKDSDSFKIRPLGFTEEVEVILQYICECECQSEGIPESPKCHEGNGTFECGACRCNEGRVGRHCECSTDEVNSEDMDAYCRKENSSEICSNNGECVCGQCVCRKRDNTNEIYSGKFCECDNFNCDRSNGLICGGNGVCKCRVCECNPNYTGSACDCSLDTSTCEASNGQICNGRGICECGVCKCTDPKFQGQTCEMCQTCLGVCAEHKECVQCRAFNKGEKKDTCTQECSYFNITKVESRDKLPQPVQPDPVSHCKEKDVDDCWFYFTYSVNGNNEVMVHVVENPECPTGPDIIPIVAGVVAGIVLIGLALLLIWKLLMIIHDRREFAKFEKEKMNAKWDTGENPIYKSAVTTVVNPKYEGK

Structure (SMILES) | IC50 (VLA-4 (a4b1); [2]) [nM] | IC50 (VLA-4 (a4b1); [4]) [nM] | No. CFU (×10^3)/mL ± SD, 1 hr ([1]; single dose, peripheral blood) | No. CFU (×10^3)/mL ± SD, 4 hr [1, 3] | No. CFU (×10^3)/mL ± SD, 8 hr ([1]; single dose, peripheral blood) | further results
CN(C)c1ccc2c(c1)c(=O)n(-c1ccc(C[C@H](NC(=O)c3c(Cl)cccc3Cl)C(=O)O)cc1)c(=O)n2C [Carotegrast] | 118 | 118 | 0.58 ± 0.19 (×10^3)/mL | 0.18 ± 0.08 (×10^3)/mL | 0.19 ± 0.09 (×10^3)/mL | –
Cc1cccc(Cl)c1C(=O)N[C@@H](Cc1ccc(NC(=O)c2c(Cl)cccc2Cl)cc1)C(=O)O [RO0270608] | 98.7 | 98.7 | 0.64 ± 0.41 (×10^3)/mL | 0.19 ± 0.06 (×10^3)/mL | 0.11 ± 0.05 (×10^3)/mL | HSPC mobilization, result in words ([1]; single dose): lack of any appreciable HSC mobilization
COc1cccc(OC)c1-c1ccc(C[C@H](NC(=O)c2c(Cl)cccc2Cl)C(=O)O)cc1 [TR-14035] | 247 | 247 | 0.54 ± 0.15 (×10^3)/mL | 0.18 ± 0.13 (×10^3)/mL | 0.10 ± 0.05 (×10^3)/mL | –
CCOCc1cc(OC)c(-c2ccc(C[C@H](NC(=O)c3c(F)cccc3F)C(=O)O)cc2)c(OC)c1 [Firategrast, firategrast] | – | – | 0.34 ± 0.12 (×10^3)/mL | 0.24 ± 0.14 (×10^3)/mL | 0.24 ± 0.14 (×10^3)/mL | –

More lines, in order of falling IC50 (VLA-4 (a4b1); [2]), values ahead:

IC50 (VLA-4 (a4b1); [2]) [nM] | IC50 (VLA-4 (a4b1); [4]) [nM] | Structure (SMILES) | No. CFU (×10^3)/mL ± SD, 1 hr ([1]; single dose, peripheral blood) | No. CFU (×10^3)/mL ± SD, 4 hr [1, 3] | No. CFU (×10^3)/mL ± SD, 8 hr ([1]; single dose, peripheral blood) | further results
3.83 | – | COc1cc(CO)cc(OC)c1-c1ccc(C[C@H](NC(=O)c2c(Cl)cc(C(=O)O)cc2Cl)C(=O)O)cc1 [Example C2] | – | – | – | No. CFU (×10^3)/mL ± SD, 0.25 hr ([1]; single s.c. injection, peripheral blood, 0.25 hr post dose (TABLE 5)): 4.08 ± 1.66 (×10^3)/mL; No. CFU (×10^3)/mL ± SD, 2 hr ([1]; single s.c. injection, peripheral blood, 2 hr post dose (TABLE 5)): 2.87 ± 1.47 (×10^3)/mL; No. CFU (×10^3)/mL ± SD, 4 hr ([1]; single s.c. injection, peripheral blood, 4 hr post dose (TABLE 5)): 0.53 ± 0.30 (×10^3)/mL; IC50 (VLA-4 (a4b1); as listed in TABLE 5, read-out: sVCAM IC50): 3.83 nM
1.36 | – | COCCOCCOCCOCCOCCOCCOCCOCCOCCOCCOCCOCCOCCOCCOCCOCCOCCOCCOCCOCCOCCOCCOCCOCCSCc1cc(OC)c(-c2ccc(C[C@H](NC(=O)[C@@H]3CCCN3S(=O)(=O)c3cc(Cl)cc(Cl)c3)C(=O)O)cc2)c(OC)c1 [Example 7, (2S)-2-[[(2S)-1-(3,5-dichlorophenyl)sulfonylpyrrolidine-2-carbonyl]amino]-3-[4-[2,6-dimethoxy-4-[2-[2-[2-[2-[2-[2-[2-[2-[2-[2-[2-[2-[2-[2-[2-[2-[2-[2-[2-[2-[2-[2-[2-(2-thiomethylethoxy)ethoxy]ethoxy]ethoxy]ethoxy]ethoxy]ethoxy]ethoxy]ethoxy]ethoxy]ethoxy]ethoxy]ethoxy]ethoxy]ethoxy]ethoxy]ethoxy]ethoxy]ethoxy]ethoxy]ethoxy]ethoxy]ethoxy]ethoxymethyl]phenyl]phenyl]propanoic acid] | – | – | – | No. CFU (x10^3)/mL ± SD, 2 hr ([1]; single dose, peripheral blood, 2 hr post dose (TABLE 11)): 2.53 ± 1.11 (x10^3)/mL; No. CFU (x10^3)/mL ± SD, 4 hr ([1]; single dose, peripheral blood, 4 hr post dose (TABLE 11)): 3.91 ± 1.44 (x10^3)/mL; No. CFU (x10^3)/mL ± SD, 6 hr ([1]; single dose, peripheral blood, 6 hr post dose (TABLE 11)): 2.96 ± 1.15 (x10^3)/mL; No. CFU (x10^3)/mL ± SD, 24 hr ([1]; single dose, peripheral blood, 24 hr post dose (TABLE 11)): 0.15 ± 0.05 (x10^3)/mL; IC50 (VLA-4 (a4b1); as listed in TABLE 11, read-out: sVCAM IC50): 1.36 nM
0.552 | – | COCCOCCOCCOCCOCCOCCOCCOCCOCCOCCOCCOCCOCCOCCOCCOCCOCCOCCOCCOCCOCCOCCOCCOCCOCCOCCOCCOCCOCCOCCOCCOCCOCCOCCOCCOCCn1cc(COCc2cc(OC)c(-c3ccc(C[C@H](NC(=O)[C@@H]4CCCN4S(=O)(=O)c4cc(Cl)cc(Cl)c4)C(=O)O)cc3)c(OC)c2)nn1 [Example C10, (S)-3-(4′-(((1-(2,5,8,11,14,17,20,23,26,29,32,35,38,41,44,47,50,53,56,59,62,65,68,71,74,77,80,83, 86,89,92,95,98,101,104,107-hexatriacontaoxanonahectan-109-yl)-1H-1,2,3-triazol-4-yl)methoxy)methyl)-2′,6′-dimethoxy-[1,1′-biphenyl]-4-yl)-2-((S)-1-((3,5-dichlorophenyl)sulfonyl)pyrrolidine-2-carboxamido)propanoic Acid] | – | – | – | HSPC mobilization, result in words ([1]; single dose): returning to baseline by 4 hours; also recorded: inferior mobilization at 4 hours compared to Example 3; No. CFU (×10^3)/mL ± SD, 0.25 hr ([1]; single dose, peripheral blood, 0.25 hr post dose (TABLE 8)): 3.87 ± 1.33 (×10^3)/mL; No. CFU (×10^3)/mL ± SD, 2 hr ([1]; single dose, peripheral blood, 2 hr post dose (TABLE 8)): 3.37 ± 1.12 (×10^3)/mL; No. CFU (×10^3)/mL ± SD, 4 hr ([1]; single dose, peripheral blood, 4 hr post dose (TABLE 8)): 0.90 ± 0.52 (×10^3)/mL; IC50 (VLA-4 (a4b1); as listed in TABLE 8, read-out: sVCAM IC50): 0.552 nM
